According to patent US9828396B2, “Alkyne compounds for treatment of complement mediated disorders” (Achillion Pharmaceuticals, Inc., priority 2014, dated 2017):

Target: Human factor D (Homo sapiens (Human), UniProt P00746)
Experiment: Human Factor D Assay
Type: biochemical
Conditions: Human factor D 80 nM, substrate Z-L-Lys-SBzl, assay of Example 12
Method: Example 12. Human Factor D Assay
Human factor D (purified from human serum, Complement Technology, Inc.) at 80 nM final concentration is incubated with test compound at various concentrations for 5 minutes at room temperature in 50 mM Tris, 1M NaCl, pH 7.5. A synthetic substrate Z-L-Lys-SBzl and DTNB (Ellman's reagent) are added to final concentrations of 100 μM each. The increase in color is recorded at OD405 nm in a microplate in kinetic mode over 30 minutes with 30 second time points in a spectrofluorimeter. IC50 values are calculated by non-linear regression from the percentage of inhibition of complement factor D activity as a function of test compound concentration.

Human factor D, sequence (P00746 26-253): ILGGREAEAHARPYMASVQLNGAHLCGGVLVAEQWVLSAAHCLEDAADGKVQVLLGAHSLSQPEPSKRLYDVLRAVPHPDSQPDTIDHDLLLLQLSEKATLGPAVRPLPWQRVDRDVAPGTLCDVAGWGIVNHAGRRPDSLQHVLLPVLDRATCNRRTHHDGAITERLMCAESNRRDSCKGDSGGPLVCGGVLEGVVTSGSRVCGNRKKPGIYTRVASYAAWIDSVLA

SMILES	IC50
COC(=O)C#Cc1ccc2c(C(C)=O)cn(CC(=O)N3C[C@H](F)C[C@H]3C(=O)NCc3cccc(Cl)c3F)c2c1 [Compound 4, methyl 3-(3-acetyl-1-(2-((2S,4R)-2-(3-chloro-2-fluorobenzylcarbamoyl)-4-fluoropyrrolidin-1-yl)-2-oxoethyl)-1H-indol-6-yl)propiolate]	< 1 µM
NC(=O)c1nn(CC(=O)N2C[C@H](F)C[C@H]2C(=O)Nc2cccc(-c3ccc(F)cc3Cl)c2F)c2ccc(C#Cc3ncccn3)cc12 [Compound 49, 1-(2-((2S,4R)-2-(2′-chloro-2,4′-difluorobiphenyl-3-ylcarbamoyl)-4-fluoropyrrolidin-1-yl)-2-oxoethyl)-5-(pyrimidin-2-ylethynyl)-1H-indazole-3-carboxamide]	< 1 µM
NC(=O)c1nn(CC(=O)N2C[C@H](F)C[C@H]2C(=O)Nc2cccc(-c3cn[nH]c3)n2)c2ccc(C#Cc3ncccn3)cc12 [Compound 50, 1-(2-((2S,4R)-2-(6-(1H-pyrazol-4-yl)pyridin-2-ylcarbamoyl)-4-fluoropyrrolidin-1-yl)-2-oxoethyl)-5-(pyrimidin-2-ylethynyl)-1H-indazole-3-carboxamide]	< 1 µM
NC(=O)c1nn(CC(=O)N2[C@@H]3C[C@@H]3C[C@H]2C(=O)Nc2cccc(Br)n2)c2ccc(C#Cc3ccc(C(F)(F)F)cn3)cc12 [Compound 59, 1-(2-((1R,3S,5R)-3-(6-bromopyridin-2-ylcarbamoyl)-2-azabicyclo[3.1.0]hexan-2-yl)-2-oxoethyl)-5-((5-(trifluoromethyl)pyridin-2-yl)ethynyl)-1H-indazole-3-]	< 1 µM
NC(=O)c1nn(CC(=O)N2C[C@H](F)C[C@H]2C(=O)Nc2cccc(-c3ccccc3Cl)c2F)c2ccc(C#Cc3ccnnc3)cc12 [Compound 79, 1-(2-((2S,4R)-2-(2′-chloro-2-fluorobiphenyl-3-ylcarbamoyl)-4-fluoropyrrolidin-1-yl)-2-oxoethyl)-5-(pyridazin-4-ylethynyl)-1H-indazole-3-carboxamide]	< 1 µM
NC(=O)c1nn(CC(=O)N2C[C@H](F)C[C@H]2C(=O)Nc2cccc(-c3ncccc3Cl)c2F)c2ccc(C#Cc3ncccn3)cc12 [Compound 28, 1-(2-((2S,4R)-2-(3-(3-chloropyridin-2-yl)-2-fluorophenylcarbamoyl)-4-fluoropyrrolidin-1-yl)-2-oxoethyl)-5-(pyrimidin-2-ylethynyl)-1H-indazole-3-carboxamide]	< 1 µM
N#Cc1cccc(NC(=O)[C@@H]2C[C@H]3C[C@H]3N2C(=O)Cn2nc(C(N)=O)c3cc(C#Cc4ncccn4)ccc32)n1 [Compound 57, 1-(2-((1R,3S,5R)-3-(6-cyanopyridin-2-ylcarbamoyl)-2-azabicyclo[3.1.0]hexan-2-yl)-2-oxoethyl)-5-(pyrimidin-2-ylethynyl)-1H-indazole-3-carboxamide]	< 1 µM
NC(=O)c1nn(CC(=O)N2[C@@H]3C[C@@H]3C[C@H]2C(=O)Nc2cccc(Br)n2)c2ccc(C#Cc3ncc(C(F)(F)F)cn3)cc12 [Compound 61, 1-(2-((1R,3S,5R)-3-(6-bromopyridin-2-ylcarbamoyl)-2-azabicyclo[3.1.0]hexan-2-yl)-2-oxoethyl)-5-((5-(trifluoromethyl)pyrimidin-2-yl)ethynyl)-1H-indazole-3-carboxamide]	< 1 µM
CC(=O)c1cn(CC(=O)N2C[C@H](F)C[C@H]2C(=O)NCc2cccc(Cl)c2F)c2ccc(C#Cc3c[nH]nc3C#N)cc12 [Compound 24, (2S,4R)-1-(2-(3-acetyl-5-((3-cyano-1H-pyrazol-4-yl)ethynyl)-1H-indol-1-yl)acetyl)-N-(3-chloro-2-fluorobenzyl)-4-fluoropyrrolidine-2-carboxamide]	< 1 µM
CC(=O)c1cn(CC(=O)N2C[C@H](F)C[C@H]2C(=O)NCc2cccc(Cl)c2F)c2cc(C#CC(=O)O)ccc12 [Compound 2, 3-(3-acetyl-1-(2-((2S,4R)-2-(3-chloro-2-fluorobenzylcarbamoyl)-4-fluoropyrrolidin-1-yl)-2-oxoethyl)-1H-indol-6-yl)propiolic acid]	< 1 µM
C#Cc1ccc2c(C(C)=O)cn(CC(=O)N3C[C@H](F)C[C@H]3C(=O)NCc3cccc(Cl)c3F)c2c1 [Compound 1, (2S,4R)-1-(2-(3-acetyl-6-ethynyl-1H-indol-1-yl)acetyl)-N-(3-chloro-2-fluorobenzyl)-4-fluoropyrrolidine-2-carboxamide]	< 1 µM
NC(=O)c1nn(CC(=O)N2C[C@H](F)C[C@H]2C(=O)Nc2cccc(Br)n2)c2ccc(C#Cc3ncc(F)cn3)cc12 [Compound 46, 1-(2-((2S,4R)-2-(6-bromopyridin-2-ylcarbamoyl)-4-fluoropyrrolidin-1-yl)-2-oxoethyl)-5-((5-fluoropyrimidin-2-yl)ethynyl)-1H-indazole-3-carboxamide]	< 1 µM
CC(=O)c1cn(CC(=O)N2C[C@H](F)C[C@H]2C(=O)NCc2cccc(Cl)c2F)c2ccc(C#Cc3ccccn3)cc12 [Compound 19, (2S,4R)-1-(2-(3-acetyl-5-(pyridin-2-ylethynyl)-1H-indol-1-yl)acetyl)-N-(3-chloro-2-fluorobenzyl)-4-fluoropyrrolidine-2-carboxamide]	< 1 µM
CC(=O)c1cn(CC(=O)N2C[C@H](F)C[C@H]2C(=O)NCc2cccc(Cl)c2F)c2ccc(C#Cc3c[nH]c(=O)nc3N)cc12 [Compound 7, (2S,4R)-1-(2-(3-acetyl-5-((4-amino-2-oxo-1,2-dihydropyrimidin-5-yl)ethynyl)-1H-indol-1-yl)acetyl)-N-(3-chloro-2-fluorobenzyl)-4-fluoropyrrolidine-2-carboxamide]	< 1 µM
C#Cc1cccc(NC(=O)[C@@H]2C[C@@H](F)CN2C(=O)Cn2nc(C(N)=O)c3ccncc32)c1F [Compound 15, 1-(2-((2S,4R)-2-(3-ethynyl-2-fluorophenylcarbamoyl)-4-fluoropyrrolidin-1-yl)-2-oxoethyl)-1H-pyrazolo[3,4-c]pyridine-3-carboxamide]	< 1 µM
NC(=O)c1nn(CC(=O)N2[C@@H]3C[C@@H]3C[C@H]2C(=O)Nc2cccc(Br)n2)c2ccc(C#Cc3ncccn3)cc12 [Compound 41, 1-(2-((1R,3S,5R)-3-(6-bromopyridin-2-ylcarbamoyl)-2-azabicyclo[3.1.0]hexan-2-yl)-2-oxoethyl)-5-(pyrimidin-2-ylethynyl)-1H-indazole-3-carboxamide]	< 1 µM
NC(=O)c1nn(CC(=O)N2C[C@H](F)C[C@H]2C(=O)Nc2cccc(-c3ccccc3Cl)c2F)c2ccc(C#Cc3ncc(F)cn3)cc12 [Compound 55, 1-(2-((2S,4R)-2-(2′-chloro-2-fluorobiphenyl-3-ylcarbamoyl)-4-fluoropyrrolidin-1-yl)-2-oxoethyl)-5-((5-fluoropyrimidin-2-yl)ethynyl)-1H-indazole-3-carboxamide]	< 1 µM
COc1nc(C#Cc2ccc3c(c2)c(C(N)=O)nn3CC(=O)N2C[C@H](F)C[C@H]2C(=O)Nc2cccc(-c3ccccc3Cl)c2F)ncc1F [Compound 78, 1-(2-((2S,4R)-2-(2′-chloro-2-fluorobiphenyl-3-ylcarbamoyl)-4-fluoropyrrolidin-1-yl)-2-oxoethyl)-5-((5-fluoro-4-methoxypyrimidin-2-yl)ethynyl)-1H-indazole-3-carboxamide]	< 1 µM
CC(=O)c1nn(CC(=O)N2C[C@H](F)C[C@H]2C(=O)Nc2cccc(Br)n2)c2ccc(C#Cc3ncc(F)cn3)cc12 [Compound 90, (2S,4R)-1-(2-(3-acetyl-5-((5-fluoropyrimidin-2-yl)ethynyl)-1H-indazol-1-yl)acetyl)-N-(6-bromopyridin-2-yl)-4-fluoropyrrolidine-2-carboxamide]	< 1 µM
